ChEMBL document CHEMBL1201862, “PubChem BioAssay data set” (2004)
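Interpolation was linear, between the two tested concentrations surrounding the appropriate level; five concentrations were tested over 48 hours in 96-well plates. At the GI50, growth is halved.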 Active and inactive are the calls of the source. No stated cut-off is given here; in the data, active = GI50 up to about 1.1 µM and inactive = higher.

Columns and labels:
Assay in all cases: growth of human tumour cells (NCI), 48 h
NCI-H522 = system: NCI-H522
SK-OV-3 = system: SK-OV-3
HCT-116 = system: HCT-116
ACHN = system: ACHN
SF-539 = system: SF-539
OVCAR-3 = system: OVCAR-3
NCI/ADR-RES = system: NCI/ADR-RES
UO-31 = system: UO-31
SNB-75 = system: SNB-75
MDA-MB-231 = system: MDA-MB-231
MDA-N = system: MDA-N
SK-MEL-2 = system: SK-MEL-2
CAKI-1 = system: CAKI-1
HOP-92 = system: HOP-92
COLO 205 = system: COLO 205
UACC-257 = system: UACC-257
HL-60 = system: HL-60
OVCAR-8 = system: OVCAR-8
U-251 = system: U-251
BT-549 = system: BT-549

Row | SMILES | GI50 (NCI-H522) | GI50 (SK-OV-3) | GI50 (HCT-116) | GI50 (ACHN) | GI50 (SF-539) | GI50 (OVCAR-3) | GI50 (NCI/ADR-RES) | GI50 (UO-31) | GI50 (SNB-75) | GI50 (MDA-MB-231) | GI50 (MDA-N) | GI50 (SK-MEL-2) | GI50 (CAKI-1) | GI50 (HOP-92) | GI50 (COLO 205) | GI50 (UACC-257) | GI50 (HL-60) | GI50 (OVCAR-8) | GI50 (U-251) | GI50 (BT-549)
1 | CCCN(CCC)C(=S)N/N=C/c1cccc(C)n1 | 0.0194 µM (active) | 0.718 µM (active) | < 0.01 µM (active) | 0.177 µM (active) | 0.214 µM (active) | < 0.01 µM (active) | < 0.01 µM (active) | 0.177 µM (active) | 0.261 µM (active) | < 0.01 µM (active) | 0.621 µM (active) | 0.594 µM (active) | 0.382 µM (active) | 0.391 µM (active) | < 0.01 µM (active) | < 0.01 µM (active) | < 0.01 µM (active) | 0.0217 µM (active) | < 0.01 µM (active) | –
2 | C/C=C(\C)C(=O)O[C@@H]1CC(C)(C)CC2C3=CCC4[C@]56CC[C@](O)(OC5)C(C)(C)C6CC[C@@]4(C)C3(C)CC[C@]21C(=O)O (stereo partly specified) | > 100 µM (inactive) | > 100 µM (inactive) | 79.6 µM (inactive) | 59.4 µM (inactive) | > 100 µM (inactive) | 81.7 µM (inactive) | > 100 µM (inactive) | – | – | > 100 µM (inactive) | > 100 µM (inactive) | > 100 µM (inactive) | > 100 µM (inactive) | – | 83.9 µM (inactive) | > 100 µM (inactive) | 28.4 µM (inactive) | > 100 µM (inactive) | 70.5 µM (inactive) | > 100 µM (inactive)
3 | CC(=O)N1C=Cc2c(c(C)c3c([nH]c4ccccc43)c2C)C1 | 10.4 µM (inactive) | 13.6 µM (inactive) | 1.53 µM (inactive) | 1.09 µM (active) | 5.27 µM (inactive) | 1.74 µM (inactive) | 2.5 µM (inactive) | – | – | 3.2 µM (inactive) | 8.75 µM (inactive) | 12.3 µM (inactive) | 10.1 µM (inactive) | 5.4 µM (inactive) | 2.4 µM (inactive) | 15.1 µM (inactive) | 23.1 µM (inactive) | 6.03 µM (inactive) | 4.89 µM (inactive) | 3.33 µM (inactive)
4 | C/C=C/OC1C(C2COC(C)(C)O2)OC2OC(C)(C)OC21 (stereo unspecified) | > 100 µM (inactive) | > 100 µM (inactive) | > 100 µM (inactive) | > 100 µM (inactive) | > 100 µM (inactive) | > 100 µM (inactive) | > 100 µM (inactive) | > 100 µM (inactive) | > 100 µM (inactive) | > 100 µM (inactive) | > 100 µM (inactive) | > 100 µM (inactive) | > 100 µM (inactive) | > 100 µM (inactive) | – | > 100 µM (inactive) | > 100 µM (inactive) | > 100 µM (inactive) | > 100 µM (inactive) | –
5 | CCCC[S+]([O-])CCC(N)C(=O)O (stereo unspecified) | > 100 µM (inactive) | > 100 µM (inactive) | > 100 µM (inactive) | > 100 µM (inactive) | > 100 µM (inactive) | > 100 µM (inactive) | > 100 µM (inactive) | > 100 µM (inactive) | > 100 µM (inactive) | > 100 µM (inactive) | > 100 µM (inactive) | – | > 100 µM (inactive) | – | > 100 µM (inactive) | > 100 µM (inactive) | > 100 µM (inactive) | > 100 µM (inactive) | > 100 µM (inactive) | > 100 µM (inactive)
6 | CC1(C)C(OC(=O)c2ccccc2)C[C@]23CCC[C@](C)(C[C@@H](O)C12)C3 (stereo partly specified) | 15.5 µM (inactive) | 85.7 µM (inactive) | 13.9 µM (inactive) | 17.9 µM (inactive) | – | 30.6 µM (inactive) | 14.5 µM (inactive) | 18.8 µM (inactive) | 18.9 µM (inactive) | – | 18.9 µM (inactive) | 17.6 µM (inactive) | 19.9 µM (inactive) | 16 µM (inactive) | 17.5 µM (inactive) | 20.4 µM (inactive) | 31.5 µM (inactive) | 16.7 µM (inactive) | > 10 µM (inactive) | 15.6 µM (inactive)
7 | Cc1ccc(/N=N/N(C)C(=O)C(C)N)cc1 (stereo unspecified) | 60.1 µM (inactive) | – | > 100 µM (inactive) | > 100 µM (inactive) | > 100 µM (inactive) | > 100 µM (inactive) | > 100 µM (inactive) | 34.4 µM (inactive) | > 100 µM (inactive) | – | > 100 µM (inactive) | > 100 µM (inactive) | > 100 µM (inactive) | > 100 µM (inactive) | > 100 µM (inactive) | > 100 µM (inactive) | > 100 µM (inactive) | > 100 µM (inactive) | > 100 µM (inactive) | > 100 µM (inactive)
8 | CC1(C)CC2(C)CC1CC2O (stereo unspecified) | – | > 100 µM (inactive) | > 100 µM (inactive) | – | > 100 µM (inactive) | > 100 µM (inactive) | > 100 µM (inactive) | > 100 µM (inactive) | > 100 µM (inactive) | > 100 µM (inactive) | > 100 µM (inactive) | – | > 100 µM (inactive) | – | > 100 µM (inactive) | > 100 µM (inactive) | > 100 µM (inactive) | > 100 µM (inactive) | > 100 µM (inactive) | > 100 µM (inactive)
9 | O=C(c1ccc(Cl)cc1Cl)N(C(=O)N1CCC(c2ccccc2)CC1)c1ccccc1 | – | > 100 µM (inactive) | 49.4 µM (inactive) | > 100 µM (inactive) | > 100 µM (inactive) | > 100 µM (inactive) | > 100 µM (inactive) | > 100 µM (inactive) | > 100 µM (inactive) | – | – | > 100 µM (inactive) | > 100 µM (inactive) | > 100 µM (inactive) | 43.3 µM (inactive) | 63.8 µM (inactive) | – | > 100 µM (inactive) | > 100 µM (inactive) | > 100 µM (inactive)
10 | N#CSC#Cc1ccc(C#CSC#N)cc1 | 11.1 µM (inactive) | 22.6 µM (inactive) | 19 µM (inactive) | 16.5 µM (inactive) | 20.9 µM (inactive) | 19.3 µM (inactive) | 19.2 µM (inactive) | 17.2 µM (inactive) | – | 17.8 µM (inactive) | 17.8 µM (inactive) | 20.2 µM (inactive) | 16.1 µM (inactive) | 12.5 µM (inactive) | 18.2 µM (inactive) | 17.3 µM (inactive) | 54.8 µM (inactive) | 19.6 µM (inactive) | 21.5 µM (inactive) | 17.9 µM (inactive)
11 | CCCCCCSC[C@H](OC(C)=O)[C@@H](OC(C)=O)[C@@H](OC(C)=O)[C@@H](COC(C)=O)OC(C)=O | – | > 100 µM (inactive) | 49.9 µM (inactive) | > 100 µM (inactive) | > 100 µM (inactive) | 80.9 µM (inactive) | > 100 µM (inactive) | > 100 µM (inactive) | > 100 µM (inactive) | > 100 µM (inactive) | > 100 µM (inactive) | > 100 µM (inactive) | > 100 µM (inactive) | > 100 µM (inactive) | 64.9 µM (inactive) | > 100 µM (inactive) | 33.6 µM (inactive) | > 100 µM (inactive) | > 100 µM (inactive) | > 100 µM (inactive)
12 | O=c1o[nH]/c(=N/c2ccccc2)n1-c1ccccc1 | – | > 100 µM (inactive) | > 100 µM (inactive) | > 100 µM (inactive) | > 100 µM (inactive) | > 100 µM (inactive) | > 100 µM (inactive) | > 100 µM (inactive) | > 100 µM (inactive) | > 100 µM (inactive) | > 100 µM (inactive) | > 100 µM (inactive) | > 100 µM (inactive) | > 100 µM (inactive) | > 100 µM (inactive) | > 100 µM (inactive) | > 100 µM (inactive) | > 100 µM (inactive) | > 100 µM (inactive) | > 100 µM (inactive)
13 | O=C(O)c1ccccc1C(=O)OCC1CCCN2CCCCC12 (stereo unspecified) | – | > 100 µM (inactive) | > 100 µM (inactive) | > 100 µM (inactive) | > 100 µM (inactive) | > 100 µM (inactive) | > 100 µM (inactive) | > 100 µM (inactive) | > 100 µM (inactive) | > 100 µM (inactive) | > 100 µM (inactive) | > 100 µM (inactive) | > 100 µM (inactive) | > 100 µM (inactive) | > 100 µM (inactive) | > 100 µM (inactive) | – | > 100 µM (inactive) | > 100 µM (inactive) | > 100 µM (inactive)
14 | COC(=O)c1c(C)nc(C)c(NO)c1-c1ccccc1C(F)(F)F | 17.2 µM (inactive) | > 100 µM (inactive) | 16.3 µM (inactive) | 30.8 µM (inactive) | 16 µM (inactive) | 16.7 µM (inactive) | 18.2 µM (inactive) | 29.5 µM (inactive) | – | 13.8 µM (inactive) | 16.8 µM (inactive) | 53.8 µM (inactive) | 16.2 µM (inactive) | 14.2 µM (inactive) | 27.1 µM (inactive) | 22 µM (inactive) | 5.41 µM (inactive) | 18.5 µM (inactive) | > 100 µM (inactive) | 16.7 µM (inactive)
15 | CC(C)(C)OC(=O)N1CCC23CCCC2C(=O)CC=C13 (stereo unspecified) | 66.4 µM (inactive) | > 100 µM (inactive) | 72.4 µM (inactive) | > 100 µM (inactive) | > 100 µM (inactive) | > 100 µM (inactive) | > 100 µM (inactive) | > 100 µM (inactive) | > 100 µM (inactive) | > 100 µM (inactive) | – | > 100 µM (inactive) | > 100 µM (inactive) | 38.3 µM (inactive) | 70.8 µM (inactive) | 11.8 µM (inactive) | > 100 µM (inactive) | > 100 µM (inactive) | > 100 µM (inactive) | > 100 µM (inactive)
